Data set [1] is described as follows: AUC in rat at 10 mg/kg, po. In kind it is ADME, organism-based. The arrangement: dose 10 mg/kg, route oral. To be noted: plasma.
Data set [2] addresses T1, C-X-C chemokine receptor type 2 (Homo sapiens, UniProt P25025).
T1 sequence (P25025 whole entry): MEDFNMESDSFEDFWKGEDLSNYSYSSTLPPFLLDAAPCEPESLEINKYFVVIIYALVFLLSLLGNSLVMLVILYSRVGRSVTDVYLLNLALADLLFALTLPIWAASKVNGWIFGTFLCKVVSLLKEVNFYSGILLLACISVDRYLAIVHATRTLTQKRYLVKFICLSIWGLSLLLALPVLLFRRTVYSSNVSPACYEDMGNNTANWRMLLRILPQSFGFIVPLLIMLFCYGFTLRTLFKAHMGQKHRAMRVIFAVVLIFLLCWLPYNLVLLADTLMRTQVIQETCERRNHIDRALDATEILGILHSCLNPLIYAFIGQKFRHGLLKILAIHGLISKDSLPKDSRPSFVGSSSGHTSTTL
Description: Displacement of human [125I]IL-8 from human CXCR2

Data set [3] deals with T2, C-X-C chemokine receptor type 1 (Homo sapiens, UniProt P25024).
T2 sequence (P25024 whole entry): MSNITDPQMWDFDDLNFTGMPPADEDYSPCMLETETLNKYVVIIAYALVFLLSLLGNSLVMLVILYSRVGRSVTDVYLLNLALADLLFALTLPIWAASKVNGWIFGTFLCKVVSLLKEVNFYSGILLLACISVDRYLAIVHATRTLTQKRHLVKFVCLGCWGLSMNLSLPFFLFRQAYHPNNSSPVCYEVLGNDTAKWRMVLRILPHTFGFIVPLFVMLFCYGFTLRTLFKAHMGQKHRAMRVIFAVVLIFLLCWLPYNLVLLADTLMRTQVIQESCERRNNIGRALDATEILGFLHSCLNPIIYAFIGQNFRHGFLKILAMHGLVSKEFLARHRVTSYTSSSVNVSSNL
Description: Displacement of human [125I]IL-8 from human CXCR1

Molecules are shown by their SMILES. Some results are limits rather than exact numbers.

The term AUC denotes concentration integrated over time. In general, Ki refers to a measure of affinity in units of concentration, obtained from inhibition or displacement. Higher therefore signals weaker binding. Consider `CC[C@@H](Nc1c(Nc2cccc(C(=O)N(C)C)c2O)c(=O)c1=O)c1ccccc1`, for which the AUC in data set [1] was found to be 17.4 µM·h. Besides, the Ki in data set [2] worked out at 4.4 nM.
`CC[C@@H](Nc1c(Nc2cccc(C(=O)N(C)C)c2O)c(=O)c1=O)c1cccs1`: the results for the Ki in data set [3] and in data set [2] were 210 nM and 5 nM, respectively. For the same compound, the AUC in data set [1] came out at 2.5 µM·h.
For the compound `CC[C@@H](Nc1c(Nc2cccc(C(=O)N3CCN(C(=O)c4ccccn4)CC3)c2O)c(=O)c1=O)c1ccccc1`, the Ki in data set [2] stood at 20 nM.
Turning to `CC[C@@H](Nc1c(Nc2ccc(-c3ccccn3)c(C(=O)N(C)C)c2O)c(=O)c1=O)c1ccccc1`, the Ki in data set [3] was above 1000 nM; in data set [2], 15 nM.
As to `CC[C@@H](Nc1c(Nc2cc(-c3ccccc3)cc(C(=O)N(C)C)c2O)c(=O)c1=O)c1ccccc1`, the Ki in data set [2] is above 2000 nM.
As for `CC[C@@H](Nc1c(Nc2cc(Cl)cc(C(=O)N(C)C)c2O)c(=O)c1=O)c1cccs1`, the Ki in data set [3] was found to be 1220 nM; in data set [2], 50 nM. For the same compound, the AUC in data set [1] worked out at 2.2 µM·h.
On to `CC[C@@H](Nc1c(Nc2cc(C)cc(C(=O)N(C)C)c2O)c(=O)c1=O)c1cccs1`, for which the inhibitory constant (Ki) was determined as 2800 nM in data set [3] and 76 nM in data set [2].
On to `CC[C@@H](Nc1c(Nc2ccccc2O)c(=O)c1=O)c1ccc(C)o1`, for which the affinity in data set [2], expressed as Ki, was 22 nM.
`CC[C@H](c1ccccc1)N(C)c1c(Nc2cccc(C(=O)N(C)C)c2O)c(=O)c1=O` displayed a Ki in data set [2] above 270 nM.
Take `CC[C@@H](Nc1c(Nc2cccc(C(=O)N3CC[C@H](O)C3)c2O)c(=O)c1=O)c1ccccc1`: the results for the Ki in data set [3] and in data set [2] were 21 nM and 18 nM, respectively.
On to `CC[C@@H](Nc1c(Nc2cccc(C(=O)N3CC[C@H](CO)C3)c2O)c(=O)c1=O)c1ccccc1`, for which the AUC in data set [1] was 0.44 µM·h. The compound also returned a Ki in data set [2] of 20 nM.
Turning to `CC[C@@H](Nc1c(Nc2cccc(C(=O)N3CCCC3C(=O)O)c2O)c(=O)c1=O)c1ccccc1` (stereo partly specified), the Ki was determined as 30 nM in data set [3] and 5 nM in data set [2].
In turn, `CC[C@@H](Nc1c(Nc2ccc(Br)c(C(=O)N(C)C)c2O)c(=O)c1=O)c1ccccc1` registered an AUC in data set [1] of 0.06 µM·h. This compound also yielded a Ki in data set [2] of 4 nM.
For the compound `CC[C@@H](Nc1c(Nc2ccc(-c3ccccc3)c(C(=O)N(C)C)c2O)c(=O)c1=O)c1ccccc1`, in data set [2], the affinity, expressed as Ki, was 17 nM.
Compound `CC[C@@H](Nc1c(Nc2cccc(C(N)=O)c2O)c(=O)c1=O)c1ccccc1` came in with an AUC in data set [1] of 2.2 µM·h. Besides, the affinity in data set [2] corresponds to a Ki of 25 nM.
For the compound `CC[C@@H](Nc1c(Nc2cc(C#N)cc(C(=O)N(C)C)c2O)c(=O)c1=O)c1ccccc1`, the Ki in data set [2] was determined as 3 nM.
Same read-out and setting: as for `CC[C@@H](Nc1c(N2CCOc3c(C(=O)N(C)C)cccc32)c(=O)c1=O)c1ccccc1`, the figure is above 270 nM.
For the compound `CC[C@@H](Nc1c(Nc2cccc(C(=O)N(C)C(C)C)c2O)c(=O)c1=O)c1ccccc1`, the Ki in data set [3] stood at 123 nM; in data set [2], 11 nM. The AUC in data set [1] came to 1.4 µM·h.
The compound `CC[C@@H](Nc1c(Nc2cccc(C(=O)N3CC(O)C3)c2O)c(=O)c1=O)c1ccccc1` returned an area under the curve (AUC) in data set [1] of 0.5 µM·h. In data set [2], this compound gave a Ki of 20 nM.
For the compound `CC[C@@H](Nc1c(Nc2cccc(C(=O)N3CCN(C)CC3)c2O)c(=O)c1=O)c1ccccc1`, the inhibitory constant (Ki) in data set [3] amounted to 41 nM; in data set [2], 12 nM.
As for `CC[C@@H](Nc1c(Nc2cccc(C(=O)O)c2O)c(=O)c1=O)c1ccc(C)o1`, in data set [2], affinity was put at a Ki of 12 nM.
In data set [2], `CC[C@@H](Nc1c(Nc2cccc(C(=O)N3CCN(C(C)=O)CC3)c2O)c(=O)c1=O)c1ccccc1` gave a Ki of 27 nM.
For `CC[C@@H](Nc1c(Nc2c(C)ccc(C(=O)N(C)C)c2O)c(=O)c1=O)c1ccccc1`, the Ki in data set [3] stood at 381 nM; in data set [2], 4.5 nM. The AUC in data set [1] is 2.3 µM·h.
The like results for `CC[C@@H](Nc1c(Nc2cc(Br)cc(C(=O)N(C)C)c2O)c(=O)c1=O)c1cccs1` were, in that order, 2070 nM, 61 nM and 1.4 µM·h.
Compound `CC[C@@H](Nc1c(Nc2cccc(C(=O)NC(C)C)c2O)c(=O)c1=O)c1ccccc1` returned a Ki in data set [2] of 219 nM.
`CC[C@@H](Nc1c(Nc2cccc(C(=O)NC)c2O)c(=O)c1=O)c1ccccc1`: in data set [1], the AUC was determined as 0.4 µM·h. For the same compound, the affinity in data set [2] corresponds to a Ki of 28 nM.
In the case of `CC[C@@H](Nc1c(Nc2cc(C)cc(C(=O)N(C)C)c2O)c(=O)c1=O)c1ccccc1`, in data set [2], affinity was put at a Ki of 203 nM.
The same measure, in the same setting: as for `CC[C@@H](Nc1c(Nc2cccc(C(=O)N3CCOCC3)c2O)c(=O)c1=O)c1ccccc1`, the figure is 10 nM.
Take `CC[C@@H](Nc1c(Nc2cc(C#N)cc(C(=O)N(C)C)c2O)c(=O)c1=O)c1cccs1`: the values for the Ki in data set [3] and in data set [2] were 54 nM and 5 nM, respectively.
In data set [1], `CC[C@@H](Nc1c(Nc2cccc(C(=O)N3CCCC3)c2O)c(=O)c1=O)c1ccccc1` registered an AUC of 1 µM·h. Also, in data set [2], the Ki was 9 nM.
For `CC[C@@H](Nc1c(Nc2cccc(C(=O)NC3CC3)c2O)c(=O)c1=O)c1ccccc1`, the affinity in data set [2], expressed as Ki, was 34 nM.
Still for that read-out and setting: as for `CC[C@@H](Nc1c(Nc2cccc(C(=O)N(C)C)c2OC)c(=O)c1=O)c1ccccc1`, the figure is above 270 nM.
The same measure, in the same setting: as for `CC[C@H](c1ccccc1)N(C)c1c(N(C)c2cccc(C(=O)N(C)C)c2O)c(=O)c1=O`, the figure is above 270 nM.

Values taken from ChEMBL document CHEMBL1153641, “Diaminocyclobutenediones as potent and orally bioavailable CXCR2 receptor antagonists: SAR in the phenolic amide region” (Bioorg Med Chem Lett, 2009).
